Reference: article PMC12629513 (Nature, 2024)
Like-named read-outs stand apart in the source and are kept apart here.

Assays:
wild-type TX001-H5N1 = details: mouse
TX001-H5N1 wild-type = format: cell-based, A/dairy cattle/Texas/24–008749-001/2024 (H5N1)
VN1203-H5N1 = test: microbe, parasite or virus in culture; format: cell-based, A/Vietnam/1203/2004 (H5N1); details: read-out: IC50 of polymerase inhibitor
[1] = biological target: VN1203-H5N1 neuraminidase (NA) (Influenza A virus, UniProt Q6DPL2); test: biochemical; parameters: species or system A/Vietnam/1203/2004 (H5N1)
[2] = biological target: TX001-H5N1 wild-type neuraminidase (NA) (Influenza A virus, UniProt D0G890); format: biochemical, A/dairy cattle/Texas/24–008749-001/2024 (H5N1)
[3] = read-out: IC50 of neuraminidase inhibitors

NC(=O)c1nc(F)c[nH]c1=O [Favipiravir]
Effectiveness in vivo (body weight, survival, virus titres) (wild-type TX001-H5N1; po): highly effective
Effectiveness of polymerase inhibitor in vitro (TX001-H5N1 wild-type): highly effective
IC50 (VN1203-H5N1; Influenza A virus, H5N1, MDCK, 48 h): 1.65 ± 0.15 µg/mL

CCOC(=O)C1=C[C@@H](OC(CC)CC)[C@H](NC(C)=O)[C@@H](N)C1 [oseltamivir phosphate]
Protection against body weight loss, viral replication in tissues, or survival (wild-type TX001-H5N1; in vivo, po): Minimal protection

COC(=O)OCOc1c2n(ccc1=O)N([C@@H]1c3ccccc3SCc3c1ccc(F)c3F)[C@@H]1COCCN1C2=O [baloxavir marboxil]
Effectiveness in vivo (body weight, survival, virus titres) (wild-type TX001-H5N1; po): highly effective
Effectiveness of polymerase inhibitor in vitro (TX001-H5N1 wild-type): highly effective

O=C1c2c(O)c(=O)ccn2N([C@@H]2c3ccccc3SCc3c2ccc(F)c3F)[C@@H]2COCCN12 [Baloxavir acid]
IC50 (TX001-H5N1 wild-type; read-out: IC50 of polymerase inhibitor): 610 ± 120 pM
IC50 (VN1203-H5N1): 1250 ± 750 pM

CO[C@@H]([C@@H]1OC(C(=O)O)=C[C@H](NC(=N)N)[C@H]1NC(C)=O)[C@H](O)CO [Laninamivir]
IC50 [1]: 410 ± 30 pM

CCC(CC)[C@H](NC(C)=O)[C@@H]1[C@H](O)[C@@H](C(=O)O)C[C@H]1N=C(N)N [Peramivir]
IC50 [2, 3]: 195 ± 15 pM
IC50 [1, 3]: 240 ± 30 pM

CC(=O)N[C@H]1[C@H]([C@H](O)[C@H](O)CO)OC(C(=O)O)=C[C@@H]1N=C(N)N [Zanamivir]
Antiviral sensitivity to NA inhibitor in vitro (interpretation) [2]: sensitive
Effect on body weight loss and death (wild-type TX001-H5N1; in vivo): delayed body weight loss and death
Effect on virus titres in lung, nasal turbinate and brain (wild-type TX001-H5N1; in vivo): significantly reduced virus titres in lung, nasal turbinate and brain
Protection against lethality (wild-type TX001-H5N1; in vivo): did not protect against lethality
